Test results from US10323007B1, “N2N N4-disubstituted quinazoline-2,4-diamines and uses thereof” (University of South Florida, priority 2016, dated 2019).
Converted amounts (≈) assume the structure as drawn. Read-outs that look alike come from different tables or passages of the source.

Assays:
human HepG2 cells = format: cell-based
Method: Cytotoxicity assays were performed using human HepG2 cells (human liver epithelial with hepatocellular carcinoma), as described by us previously.^17,24 Cells were cultured in Dulbecco's modified eagle medium (DMEM), supplemented with 10% fetal bovine serum and 1% penicillin-streptomycin for 3 days at 37° C. and 5% CO2. Cells were then diluted to 1×10^5 ml^−1 using fresh DMEM and added to 96 well tissue culture plates at a volume of 100 μL. Plates were incubated for 24 hours at 37° C. and 5% CO2, allowing the cells to adhere to the plastic. […] Plates were then incubated for 48 hours at 37° C. and 5% CO2. After 48 hours the DMEM was removed and 100 μL of new media was added containing MTT (3-(4, 5-dimethylthiazol-2-yl)-2, 5-diphenyltetrazolium bromide), followed by incubation for four hours at 37° C. and 5% CO2. […] Lead compounds were solvated in 100% DMSO for these studies, which served as the negative control. LD50 values were determined for each compound by comparison to vehicle only controls.

A. baumannii 1651 [1] = assay: MIC assay, strain 1651; format: cell-based, Acinetobacter baumannii; settings: Acinetobacter baumannii, strain 1651
Method: (§1) MIC and MBC assays were performed in this study as documented by us previously.^17,23,24,25 The A. baumannii strains used are detailed in Table 7.

A. baumannii 1646 [2] = assay: MIC assay, strain 1646; format: cell-based, Acinetobacter baumannii; settings: Acinetobacter baumannii
Method: as §1

A. baumannii 1650 [3] = assay: MIC assay, strain 1650; format: cell-based, Acinetobacter baumannii; settings: Acinetobacter baumannii, strain 1650
Method: as §1

A. baumannii 1652 [4] = assay: MIC assay, strain 1652; format: cell-based, Acinetobacter baumannii; settings: Acinetobacter baumannii, strain 1652
Method: as §1

A. baumannii 1403 [5] = assay: MIC assay, strain 1403; format: cell-based, Acinetobacter baumannii; settings: Acinetobacter baumannii, strain 1403
Method: as §1

A. baumannii strain 1403 = format: cell-based, Acinetobacter baumannii; settings: serial passage, 8 days, start 0.5× MIC
Method: An important attribute of novel antibiotics is the ability to fend off the development of resistance towards their effects. To assess this capacity, A. baumannii strains were incubated overnight with 0.5× MIC of each of the frontrunners. The next day cells were washed and used to inoculate fresh media that contained a two-fold increase in drug. This was repeated for a total of 8 days, alongside sulfamethoxazole (SMX) and trimethoprim (TMP) controls, both of which target the same pathway as our lead agents (FIG. 2).
In order to test potential resistance towards the quinazolines, a serial passage assay was performed alongside control compounds (Sulfamethoxazole and Trimethoprim), as described by us previously.^24 A. baumannii strain 1403 was grown overnight in LB media at 37° C. The next day cultures were diluted 1:100 in fresh media and seeded into a 96-well plate. Lead quinazolines or control agents were added to respective wells at half MIC concentrations. […] These were then grown overnight, and the procedure repeated for a total of eight days.

A. baumannii 1649 [6] = assay: MIC assay, strain 1649; format: cell-based, Acinetobacter baumannii; settings: Acinetobacter baumannii, strain 1649
Method: as §1

A. baumannii 1403 [7] = assay: minimal bactericidal concentration (MBC) assay, strain 1403; format: cell-based; settings: Acinetobacter baumannii, Table 8, read-out: MBC90 1403
Source text: (§2) Lead quinazolines 4, 5, 26, 29, 27, and 30 were selected to be further evaluated for antimicrobial effects. The first assay utilized was a minimal bactericidal concentration (MBC) assay, to assess whether leads compounds were bacteriostatic or bactericidal. The six lead agents were screened to identify their MBC90 towards each of the six A. baumannii isolates used in the SAR studies (Table 8), however for simplicity only the representative data for isolate 1646 is detailed below (Table 6). […] Further to this, we were able to obtain complete eradication of bacterial growth for these two compounds at 1 μM for 24 and 5 μM for 25.
as §1

[8] = test system: A. baumannii 1649 biofilm; assay: biofilm eradication determination assay, strain 1649; format: cell-based, Acinetobacter baumannii; settings: 90% biofilm eradication, Table 8
Method: (§3) These assays were performed as described by us previously,^26,24 as follows. Each of the A. baumannii strains were grown overnight in Mueller Hinton Broth (MHB). The next day these were used to seed fresh MHB to an OD600 of 0.5, with 150 μL then added to the wells of a 96 well plate and grown for 24 hours at 37° C. After 24 hours, the planktonic bacteria were carefully removed and fresh MHB was added with increasing concentrations of lead quinazolines. After incubation at 37° C. for 24 hours, planktonic cells were removed and biofilms were washed three times with phosphate buffered saline (PBS). Biofilms were then resuspended in PBS and plated for cell viability on tryptic soy agar. Biofilm recovery was assessed compared to no drug controls, and determined as percent eradication. This was used to determine MBEC90 values (Minimal Biofilm Eradication Concentration), where the viability of cells within the biofilm was reduced by 90%.

[9] = test system: A. baumannii 1403 biofilm; assay: biofilm eradication determination assay, strain 1403; format: cell-based, Acinetobacter baumannii; settings: 90% biofilm eradication, Table 8
Method: as §3

A. baumannii = assay: MIC assay, A. baumannii isolates (strain not given); format: cell-based, Acinetobacter baumannii; settings: Acinetobacter baumannii; most isolates besides the 1652 strain; read-out: MIC against most isolates
Method: as §1

[10] = test system: A. baumannii 1651 biofilm; assay: biofilm eradication determination assay, strain 1651; format: cell-based, Acinetobacter baumannii; settings: 90% biofilm eradication, Table 8
Method: as §3

A. baumannii 1651 [11] = assay: minimal bactericidal concentration (MBC) assay, strain 1651; format: cell-based; settings: Acinetobacter baumannii, Table 8, read-out: MBC90 1651
Source text: as §2, §1

[12] = test system: A. baumannii 1652 biofilm; assay: biofilm eradication determination assay, strain 1652; format: cell-based, Acinetobacter baumannii; settings: 90% biofilm eradication, Table 8
Method: as §3

A. baumannii 1649 [13] = assay: minimal bactericidal concentration (MBC) assay, strain 1649; format: cell-based; settings: Acinetobacter baumannii, Table 8, read-out: MBC90 1649
Source text: as §2, §1

A. baumannii 1646 [14] = assay: minimal bactericidal concentration (MBC) assay, strain 1646; format: cell-based, Acinetobacter baumannii
Source text: as §2, §1

[15] = test system: A. baumannii 1646 biofilm; assay: biofilm eradication determination assay, strain 1646; format: cell-based, Acinetobacter baumannii; settings: for MBEC90: Table 6, representative data for isolate 1646; for MBEC90 1646: 90% biofilm eradication, Table 8 and text
Method: as §3

A. baumannii 1652 [16] = assay: minimal bactericidal concentration (MBC) assay, strain 1652; format: cell-based; settings: Acinetobacter baumannii, Table 8, read-out: MBC90 1652
Source text: as §2, §1

[17] = test system: A. baumannii 1650 biofilm; assay: biofilm eradication determination assay, strain 1650; format: cell-based, Acinetobacter baumannii; settings: 90% biofilm eradication, Table 8
Method: as §3

A. baumannii 1650 [18] = assay: minimal bactericidal concentration (MBC) assay, strain 1650; format: cell-based; settings: Acinetobacter baumannii, Table 8, read-out: MBC90 1650
Source text: as §2, §1

[19] = Tables 1, 3, 4, 5 and footnotes, read-out: 1651 MIC
[20] = strain 1646, Tables 1, 3, 4, 5 and footnotes, read-out: 1646 MIC
[21] = Tables 1, 3, 4, 5 and footnotes, read-out: 1650 MIC
[22] = Tables 1, 3, 4, 5 and footnotes, read-out: 1652 MIC
[23] = Tables 1, 3, 4, 5 and footnotes, read-out: 1403 MIC
[24] = Tables 1, 3, 4, 5 and footnotes, read-out: 1649 MIC
[25] = at 25 μM (highest concentration tested)
[26] = lead quinazolines, Table 8, read-out: MIC 1651
[27] = Table 6, representative data for isolate 1646, read-out: MIC
[28] = strain 1646, lead quinazolines, Table 8, read-out: MIC 1646
[29] = lead quinazolines, Table 8, read-out: MIC 1650
[30] = Acinetobacter baumannii, 1646, strain 1646, Table 8 and text, read-out: MBC90 1646
[31] = Acinetobacter baumannii, Table 6, representative data for isolate 1646, read-out: MBC90
[32] = lead quinazolines, Table 8, read-out: MIC 1652
[33] = lead quinazolines, Table 8, read-out: MIC 1403
[34] = lead quinazolines, Table 8, read-out: MIC 1649

MIC (A. baumannii 1651 [1]; [19]) [µM]	MIC (A. baumannii 1646 [2]; [20]) [µM]	MIC (A. baumannii 1650 [3]; [21]) [µM]	MIC (A. baumannii 1652 [4]; [22]) [µM]	MIC (A. baumannii 1403 [5]; [23]) [µM]	MIC (A. baumannii 1649 [6]; [24]) [µM]	MIC (A. baumannii 1651 [1]; [26]) [µM]	MIC (A. baumannii 1646 [2]; [27]) [µM]	MIC (A. baumannii 1646 [2]; [28]) [µM]	MIC (A. baumannii 1650 [3]; [29]) [µM]	SMILES	HepG2 cell viability (human HepG2 cells; [25]) [%]	LD50(HepG2) (human HepG2 cells; human, 48 h) [µM]	MBC (A. baumannii 1403 [7]) [µM]	MBEC90 1649 [8] [µM]	MBEC90 1403 [9] [µM]	MBEC90 1651 [10] [µM]	MBC (A. baumannii 1651 [11]) [µM]	MBEC90 1652 [12] [µM]	MBC (A. baumannii 1649 [13]) [µM]	MBC (A. baumannii 1646 [14]; [30]) [µM]	other results
2 (≈ 0.669 µg/mL)	2 (≈ 0.669 µg/mL)	2 (≈ 0.669 µg/mL)	10 (≈ 3.34 µg/mL)	2 (≈ 0.669 µg/mL)	2 (≈ 0.669 µg/mL)	10 (≈ 3.34 µg/mL)	1 (≈ 0.334 µg/mL)	1 (≈ 0.334 µg/mL)	10 (≈ 3.34 µg/mL)	CCCCCc1ccc2nc(NCc3ccccc3)nc(NC)c2c1 [Compound 27, N^2-Benzyl-N^4-methyl-6-pentylquinazoline-2,4-diamine]	31	12	20 (≈ 6.69 µg/mL)	62	12	18	4.1 (≈ 1.37 µg/mL)	64	43 (≈ 14.4 µg/mL)	1.1 (≈ 0.368 µg/mL)	MIC (A. baumannii): 2 µM (≈ 0.669 µg/mL); MBC (A. baumannii 1646 [14]; [31]): 1.1 µM (≈ 0.368 µg/mL); MBEC90 [15]: 11.5 µM; MBEC90 1646 ([15]; strain 1646): 12 µM; MBC (A. baumannii 1652 [16]): 23 µM (≈ 7.69 µg/mL); MIC (A. baumannii 1652 [4]; [32]): 20 µM (≈ 6.69 µg/mL); MIC (A. baumannii 1403 [5]; [33]): 15 µM (≈ 5.02 µg/mL); MBEC90 1650 [17]: 49 µM; MBC (A. baumannii 1650 [18]): 20 µM (≈ 6.69 µg/mL); MIC (A. baumannii 1649 [6]; [34]): 10 µM (≈ 3.34 µg/mL)
2 (≈ 0.665 µg/mL)	2 (≈ 0.665 µg/mL)	25 (≈ 8.31 µg/mL)	30 (≈ 9.97 µg/mL)	10 (≈ 3.32 µg/mL)	10 (≈ 3.32 µg/mL)	2 (≈ 0.665 µg/mL)	1 (≈ 0.332 µg/mL)	1 (≈ 0.332 µg/mL)	25 (≈ 8.31 µg/mL)	CCC/C=C/c1ccc2nc(NCc3ccccc3)nc(NC)c2c1 [Compound 26, (E)-N^2-Benzyl-N^4-methyl-6-(pent-1-en-1-yl)quinazoline-2,4-diamine]	41	16	40 (≈ 13.3 µg/mL)	63	24	24	5.7 (≈ 1.89 µg/mL)	97	10 (≈ 3.32 µg/mL)	1.8 (≈ 0.598 µg/mL)	HepG2 cell viability (human HepG2 cells; at 12 μM): 49%; MBC (A. baumannii 1646 [14]; [31]): 1.8 µM (≈ 0.598 µg/mL); complete bacterial eradication concentration as multiple of MIC (A. baumannii 1646 [14]; isolate 1646): 5 ×; concentration giving complete eradication of bacterial growth (A. baumannii 1646 [14]; isolate 1646): 5 µM; MBEC90 [15]: 8.9 µM; reduction in biofilm viability ([15]; at 50 μM, strain 1646): 1.4 log; MBEC90 1646 ([15]; strain 1646): 8.9 µM; MBC (A. baumannii 1652 [16]): 23 µM (≈ 7.65 µg/mL); MIC (A. baumannii 1652 [4]; [32]): 30 µM (≈ 9.97 µg/mL); MIC (A. baumannii 1403 [5]; [33]): 10 µM (≈ 3.32 µg/mL); MBEC90 1650 [17]: 50 µM; MBC (A. baumannii 1650 [18]): 16 µM (≈ 5.32 µg/mL); MIC (A. baumannii 1649 [6]; [34]): 10 µM (≈ 3.32 µg/mL)

SMILES	MIC (A. baumannii 1651 [1]; [19]) [µM]	MIC (A. baumannii 1646 [2]; [20]) [µM]	MIC (A. baumannii 1650 [3]; [21]) [µM]	MIC (A. baumannii 1652 [4]; [22]) [µM]	MIC (A. baumannii 1403 [5]; [23]) [µM]	MIC (A. baumannii 1649 [6]; [24]) [µM]	MIC (A. baumannii 1651 [1]; [26]) [µM]	MIC (A. baumannii 1646 [2]; [27]) [µM]	MIC (A. baumannii 1646 [2]; [28]) [µM]	MIC (A. baumannii 1650 [3]; [29]) [µM]	HepG2 cell viability (human HepG2 cells; [25]) [%]	LD50(HepG2) (human HepG2 cells; human, 48 h) [µM]	MBC (A. baumannii 1403 [7]) [µM]	MBEC90 1649 [8] [µM]	MBEC90 1403 [9] [µM]	MBEC90 1651 [10] [µM]	MBC (A. baumannii 1651 [11]) [µM]	MBEC90 1652 [12] [µM]	MBC (A. baumannii 1649 [13]) [µM]	MBC (A. baumannii 1646 [14]; [30]) [µM]	other results
Cc1cc(NS(=O)(=O)c2ccc(N)cc2)no1 [SMX, Sulfamethoxazole, reference compound]	118 (≈ 29.9 µg/mL)	118 (≈ 29.9 µg/mL)	118 (≈ 29.9 µg/mL)	118 (≈ 29.9 µg/mL)	138 (≈ 35 µg/mL)	118 (≈ 29.9 µg/mL)															HepG2 cell viability (human HepG2 cells; human, 48 h, 25 μM): 46%; increase in MIC over the 8-day test period (A. baumannii strain 1403): 128 fold
